This is an account of results in patent publication EP4653017A1, “ANTIBODY-DRUG CONJUGATE AND USE THEREOF” (Tyligand Bioscience (Shanghai) Limited, priority 2023, dated 2024).

Counter-ions that a name gives are not always drawn.

The subject of one test is H22. Nature of the test: Inhibition of tumor cell line proliferation (Table 3), H22. It is filed as cell-based. To be noted: H22, Mouse hepatoma cells.
In a further test the test system is CT26 cells. In words: Inhibition of CT26 cell proliferation (CellTiter-Glo). It is filed as cell-based, mouse. How it is done:
CT26 cells are a mouse colorectal cancer cell line. In this experiment, CellTiter-Glo Luminescence Cell Viability Assay kit from Promega was used to assess the inhibitory activity of the compounds on CT26 cell proliferation.
When CT26 cells (ATCC #CRL-2638) were revived, the cryovial was rapid shaken in a 37°C water bath to thaw with 1 min. The thawed cell suspension was mixed well with DMEM medium (GE Company, Cat. No. #SH30243.01) containing 10% FBS (GIBCO, Cat. No. #10099-141), centrifuged at 1000 rpm for 5 min, and the supernatant was discarded. The cell pellet was resuspended in 5 mL of complete medium (DMEM medium containing 10% FBS), placed in a cell culture flask with a bottom area of 25 cm^2, and cultured in a cell incubator at 37°C, 5% CO2, and 95% humidity. Passage was performed when the confluence rate of cells reached 70%~80%. Referring to the cell passage method at plating, all cells in the flask were transferred to a 15 mL centrifuge tube, centrifuged at 1000 rpm for 5 minutes, and the supernatant was discarded. The cell pellet was resuspended in 5 mL of new complete medium, 1 mL was placed in a cell culture flask with a bottom area of 25 cm^2, and 4 mL of fresh complete medium was added to continue the culture. Plating was performed when the cell confluence rate of cells reached 70% to 80% again. Referring to the cell passage method at plating, 1/5 of the cell suspension was maintained and the remaining 4/5 of the cell suspension was placed in a 15 mL centrifuge tube. The cells were centrifuged, the old medium was discarded, the cells was washed once with DMEM medium (without serum), and centrifuged to remove the supernatant. Cells were resuspended with DMEM medium (without serum). […]. A cell suspension at a density of 1.1 x 10^4 viable cells/mL was prepared using DMEM medium (without serum) and 90 µL of the cell suspension was added to 96-well clear flat-bottom black-walled cell culture plate wells (Corning, Cat. No. #3603) to yield a cell density of 1000 viable cells/well in the plate. A control group without cells, without compounds, and with complete medium only (i.e., culture medium control) was set up, and a control group without compounds and with cells (i.e., cell control) was set up. The plates were incubated overnight in a cell incubator.
A DMSO stock solution of 10 mM compound was first serially diluted at a 3.16-fold dilution ratio with DMSO (Sigma, Cat. No. #D2650) to a ninth concentration and a tenth concentration of DMSO control without compound was set. DMSO solutions containing different concentrations of the compound were then diluted a 10-fold dilution ratio with PBS (Solarbio company, Cat. No. #P1020) to achieve a DMSO content of 10% in each concentration of the compound solution. Finally, 10 µL of the above solution was added to the corresponding cell culture plate to achieve a starting concentration of 100 µM compound, a 3.16-fold dilution ratio of adjacent concentrations, and a DMSO content of 1% in the cell culture plate. The plates were maintained in a cell incubator for an additional 120 hours.
After 120 hours, the CellTiter-Glo reagent (Promega, Cat. No. #G7572) was thawed and the plate was equilibrated at room temperature for 30 min. Then, 100 µL CellTiter-Glo was added to each well of the plate and shaken on an orbital shaker for 5 min to fully lyse the cells. The plate was placed at room temperature for 20 min to stabilize the cold light signal, and the cold light value of each well was scanned with a multifunctional microplate reader (Molecular Devices, Spectramax M3) at full wavelength.
The compound of the present invention and ADU-S100 (MCE, Cat. No. #HY12885A) were used as controls: Clofarabine (Wuhu Huaren Technology, Cat. No. #HR-00701002), Cladribine (CSNpharm, Cat. No. #CSN10004), Gemcitabine Hydrochloride (Shaoyuan, Cat. No. #SY014538), Gemcitabine Prodrug LY2334737 (home-made). […]

Test [1] concerns lymphoma Raji-hClaudin 18.2 cells. In words: Inhibition of Raji-hClaudin 18.2 cell proliferation (CTG assay). The class given is cell-based. Here is the method: Raji-hClaudin 18.2 cells (provided by Elpiscience) were cultured at 37°C, 5% CO2 and 95% humidity in RPMI 1640 + 10% FBS (ExCell Bio, Cat. No. #FND500) + 10 ug/mL Blasticidin (Beyotime, Cat. No. #ST-018), the cells in logarithmic growth phase were harvested and counted, and cell viability was measured using Countstar automated cell counter based on classical trypan blue staining principle to ensure that the cell viability was above 90%. The cell concentration was adjusted, 135 µL of cell suspension was added into 96 well clear flat bottom black wall plate (Corning, Cat. No. #3904), 10000/well, and the cells were incubated in 96 well plate at 37°C and 5% CO2.
The cells in the 96 well plates that had been dosed were incubated at 37°C, 5% CO2 for 5 days before performing CTG assay. The plate was equilibrated to room temperature for 30 min and CTG Reagent (CellTiter-Glo® Luminescent Cell Viability Assay (Promega, Cat. No. #G7573) was melt, 50 µL of CTG Solution was added to each well, and shaked on an orbital shaker for 2 min to lyse the cells. The plate was left at room temperature for 10 min to stabilize the cold light signal and the cold light value was read (EnVision ® Multifunctional Plate Reader, PerkinElmer#2105). [formula] […]

Another test deals with SK-MEL5. In words: Inhibition of tumor cell line proliferation (Table 3), SK-MEL5. The class given is cell-based. Conditions: SK-MEL-5; SK-MEL5, Human melanoma cells.
In a further test the test system is A375. Nature of the test: Inhibition of tumor cell line proliferation (Table 3), A375. The class given is cell-based. Conditions: A-375; A375, Human melanoma cells.
For a further test, the system named is FaDu. In words: Inhibition of tumor cell line proliferation (Table 3), FaDu. Conditions: Human pharyngeal squamous carcinoma cell. It is filed as cell-based.
A further test relates to B16F10. In words: Inhibition of tumor cell line proliferation (Table 3), B16F10. The class given is cell-based. Conditions: B16-F10; B16F10, Mouse melanoma cells.
Another test concerns A20. Nature of the test: Inhibition of tumor cell line proliferation (Table 3), A20. The class given is cell-based. To be noted: A20, Mouse B lymphoma cells.
Another test relates to MC38. Nature of the test: Inhibition of tumor cell line proliferation (Table 3), MC38. It is filed as cell-based. Conditions: MC-38; MC38, Mouse colon cancer cells.

Take `Nc1nc2c(ncn2[C@@H]2O[C@@H]3CO[P@@](=O)(S)O[C@H]4[C@H](F)[C@H](n5cnc6c(N)nc(Cl)nc65)O[C@@H]4CO[P@@](=O)(S)O[C@@H]2[C@@H]3O)c(=O)[nH]1` [CDN-3, (2',3')-cyclo-(Rp,Rp)-[2'-O-thiophosphodiester-guanosine]-[3'-O-thiophosphodiester-2-chloro-2'-deoxy-2'-fluoro-beta-adenosine]diammonium salt]: the IC50 in the test on H22 is 982 nM; in the test on CT26 cells (Mus musculus, CT26, 120 h, read-out: CT-26 activity) it was below 1000 nM; in [1] (120 h, Raji-hClaudin 18.2, 5 days incubation, top concentration 600 nM), 131 nM; with SK-MEL5, 505 nM; with A375, 206 nM; with FaDu, 499 nM. Also, the IC50 in the test with B16F10 stood at 8700 nM; in the test on A20, 32 nM; in the test with MC38, 1020 nM. Besides, in the test with CT26 cells (superior to ADU-S100), the “inhibitory ability on growth of CT26 tumor cells in vitro (in words)” value is listed as “particularly significant inhibitory ability”. Besides, the “inhibition effects on Raji-hClaudin 18.2 cell proliferation (in words)” value in test [1] is “strong inhibition effects”.
